# Like-named read-outs stand apart in the source and are kept apart here.
# Assays:
# [1] = cited from earlier work; for Mortality: solutions in capsules
# [2] = FDA Summary Basis of Approval; cited from earlier work
# [3] = 72 hr dog study; cited from earlier work
# [4] = Aqueous solubility at room temperature; settings: for Aqueous solubility, mMol/L (complex): as complex
# [5] = Rat PK study: plasma concentrations of zoledronic acid from pure zoledronic acid and complexes delivered IV, oral gavage and ID; format: in vivo, Sprague-Dawley Rats
# Protocol: These studies were conducted on rats and dogs as they are suitable animal models for zoledronic acid. This can be attributed to the fact that both animals have historically been used in the safety evaluation and PK screening studies and are recommended by appropriate regulatory agencies. […] Pure zoledronic acid and zoledronic acid complexes prepared by the methods in this invention were delivered to the rats and dogs through IV or oral routes. Additional tests included ID administration in rats and administration of enteric coated capsules in dogs. All compounds delivered were well tolerated by the animals with no adverse events or physical abnormalities noticed. […] USA. Some animals have surgical catheters (jugular vein and intraduodenum) were implanted to the animals prior to the studies. […] Surgical catheters (jugular vein) were implanted prior to the studies. […] Routes of Rat Dosing: Zoledronic acid and its complex formulations were administered through IV, oral and ID. […] The dose of each rat was calculated on a per rat basis (not on an average weight of all the rats in the lot). • ii. Oral gavage administration: solid suspensions were administered. The dose of each rat was calculated on a per rat basis (not on an average weight of all the rats in the lot). […] Duodenal cannula administration: solid suspensions were administered. The dose of each rat was calculated on a per rat basis (not on an average weight of all the rats in the lot). […] Groups: Two major groups of animals were selected for the study. • Group 1 consists of rat studies. […] Group I (IV Administration): Group Members, Designated IV Doses are Listed Below: [table] Group II (oral gavage): Group designations and oral doses are listed below: […] Group III (ID Administration): Group Designations and Oral Doses are Listed Below: [table] Rat blood sample collection, handling and analysis: […] Samples were thawed on the day of analysis and the amount of zoledronic acid in the samples was quantified by analyzed by LC/MS/MS method. Rat study: […]
molecule,measurement,setting,value
"O=P(O)(O)C(O)(Cn1ccnc1)P(=O)(O)O [Zoledronic acid, (1-hydroxy-2-imidazol-1-yl-1-phosphono-ethyl)phosphonic acid]",Mortality (dogs),[1]; 10 mg/kg administered directly to the stomach,⅓
same,Mortality (dogs),"[1]; 25 mg/kg, same formulation",3/3
same,AUC 0-24 hr,"[1]; dogs, 10 mg/kg administered directly to the stomach",1254 ng·h/mL
same,AUC 0-24,"[1]; dogs, 25 mg/kg, same formulation",7319 ng·h/mL
same,Mortality,"[1]; dogs, 10 mg/kg/day, one formulation",30%
same,Mortality,"[1]; dogs, another formulation, 25 mg/Kg",100%
same,Oral bioavailability,[2],less than 1%
same,AUC,[3],2217 ng·h/mL
NCCCCC(N)C(=O)O.O.O.O=P(O)(O)C(O)(Cn1ccnc1)P(=O)(O)O [ZA: L-Lysine dihydrate],"Aqueous solubility, Conc.",[4],8.22 mg/mL
same,"Aqueous solubility, mMol/L (complex)",[4],18.09 mmol/L
NCCCCC(N)C(=O)O.O.O=P(O)(O)C(O)(Cn1ccnc1)P(=O)(O)O [ZA: DL-Lysine monohydrate],"Aqueous solubility, Conc.",[4],13.9 mg/mL
same,"Aqueous solubility, mMol/L (complex)",[4],31.86 mmol/L
"Zoledronic, nicotinamide, and water complex",Average plasma concentration of 3 rats,"[5]; ID 5 mg/kg zoledronic acid equivalent, PEG 400, 8 hour",0.00 ng/mL
same,Average plasma concentration of 3 rats,"[5]; ID 5 mg/kg zoledronic acid equivalent, PEG 400, 24 hour",0.00 ng/mL
same,Average plasma concentration of 3 rats,"[5]; PO 5 mg/kg zoledronic acid equivalent, PEG 400, 24 hour",0.00 ng/mL
O=P([O-])(O)C(O)(Cn1ccnc1)P(=O)([O-])O.[Na+].[Na+] [disodium zoledronate salt],AUC,[3],4073 ng·h/mL

# Source: patent publication US20190083407A1, “CRYSTALLIZATION METHOD AND BIOAVAILABILITY” (priority 2015, published 2019)
